Results: paper PMC7463651, “Phase I/Ib Study of Tenalisib (RP6530), a Dual PI3K δ/γ Inhibitor in Patients with Relapsed/Refractory T-Cell Lymphoma” (Cancers, 2020)
“Also recorded” adds a separate entry of the source.

What was measured:
[1] = parameters: method as in ref 27 = [27]; 27. Barde P. Rhizen, Switzerland Unpublished work 2016; conditions: healthy volunteers, high fat meal; cited from earlier work
[2] = tested on: patient-derived primary cell lines representative of B and T lymphoma cell lines; parameters: method as in doi:10.1182/blood.V122.21.4418.4418; conditions: cited from earlier work
CD30, IL-31 and IL-32α = experiment: Correlative biomarker analysis in plasma; type: in vivo, human
Protocol: Assessment of CD30 and soluble IL-2 receptor (sIL-2R) for PTCL and cutaneous T-cell attracting chemokine (CTACK), IL-31 and IL-32α for CTCL were performed in plasma at screening, pre-dose and after 1 h on Day 1 of Cycle 3, at EOT and/or to confirm a response.

[3] = tested on: T-cell leukemia xenograft; parameters: method as in ref 18 = [18]; 18. Mao G. Viswanadha S. Rhizen, Switzerland Unpublished work 2013; conditions: cited from earlier work
[4] = CTCL group, Cycle 3 Day 1 compared to baseline, correlated with responses

CC[C@H](Nc1ncnc2[nH]cnc12)c1oc2ccccc2c(=O)c1-c1cccc(F)c1 [Tenalisib]
Effect of food on Cmax [1]: no significant effect on Cmax
Effect of food on overall exposure [1]: increased the overall exposure
Apoptotic and anti-proliferative activity [2]: demonstrated apoptotic and anti-proliferative activity
Plasma IL-31 levels (CD30, IL-31 and IL-32α; [4]): marked downregulation; also recorded: reductions
Plasma IL-32α levels (CD30, IL-31 and IL-32α; [4]): marked downregulation; also recorded: reductions
Plasma CD30 levels (CD30, IL-31 and IL-32α; PTCL patients, baseline to Cycle 3 Day 1, correlated with response): marked downregulation; also recorded: decrease in CD30 levels
Efficacy in xenograft model [3]: demonstrated efficacy
